Assay results as given in patent US6979665B2, “Agent for stimulation of the natural defences of plants and methods for using it” (Laboratoires Goemar S.A., priority 2002, dated 2005).
“Also recorded” adds a separate entry of the source.

Tests used:
[1] = tested on: agronomically useful plants; experiment: Stimulation of natural defence reactions of plants by liquid compositions (general statements); type: in vivo; conditions: in practice
[2] = tested on: OMT activity (orthodiphenol-O-methyltransferases); experiment: OMT activity in infiltrated tobacco leaves; type: in vivo, Nicotiana tabacum; conditions: for stimulation of the OMT activity: 200 mg/l; for OMT activity relative to that obtained with H11-C2: 500 mg/l
Source text: Measurement was also made of the OMT activity induced by the compositions based on the fractions H11-C1 and H11-S.
For the measurement of that activity, procedure was as disclosed by Costet L., Dorey S., Fritig B. and Kauffmann S in the publication here above identified and published under the title: • “A pharmacological approach to test the diffusible signal activity of reactive oxygen intermediates in […] tobacco leaves”, in Plant Cell and Physiology (2002) 43; 91-98.
The latter show the stimulation of the OMT activity, expressed in pkat/g FP (i.e. in picokatal per gram of fresh product FP, in other words of fresh vegetable material), by infiltration with water as control (reference C), then with the compositions based on H11-C1 and H11-S, the plants treated being again the varieties NN and Bel3.
The OMT activity has also been measured after infiltration of the varieties NN and Bel3 with the same compositions.
In another line of tests, the varieties NN and Bel3 have been treated with the same inducing compositions presenting respectively the concentrations of 0.5 and then of 5, of 50, of 200 and of 500 mg/l in H11-S and H11-C and the OMT activity in the case of the varieties NN and Bel3 has been analysed.
FIGS. 8 and 9 show the values of stimulation of the OMT activity (expressed in pkat/g FP) respectively in the case of the varieties NN and Bel3.

[3] = tested on: signalisation pathways of salicic acid and of ethylene; experiment: Complementary experiences on signalisation pathways; type: in vivo
[4] = tested on: PR proteins (families PR1, PR2, PR3 and PR5, acidic and alkaline isoforms); experiment: Expression of PR proteins in infiltrated tobacco leaves by immunodetection; type: in vivo, Nicotiana tabacum
Protocol: Concerning the PR proteins, the expression of the acidic and of the alkaline isoforms of 4 families of these proteins, i.e. the families PR1, PR2, PR3 and PR5 has been analysed in the case of tobacco plants of the varieties NN and Bel3 infiltrated with compositions based on the fractions H11-C1 and H11-S at a concentration of 200 mg/l.
The analysis of these proteins has been carried out by immunodetection as disclosed in the publication in the name of Costet L., Dorey S., Fritig B. and Kauffmann S., published under the title: • “A pharmacological approach to test the diffusible signal activity of reactive oxygen intermediates in elicitor-treated tobacco leaves”, in Plant Cell and Physiology (2002) 43; 91-98.
The intensity of the induction appears on the tracks 1 to 8 by way of spots more or less pronounced.
The samples of infiltrated tissues on which the treatments illustrated by track 9 of FIG. 3 were made, were carried out 3 days after the infiltration treatment.
(§1) In another line of tests or experiences, the varieties NN and Bel3 have been treated with inducing compositions presenting respectively the concentrations of 0.5 and then of 5, of 20, of 50, of 200 and of 1,000 mg/l in H11-S and H11-C2 and the expression of the PR1 and PR2 acidic proteins in the case of the said varieties NN and Bel3 have been analysed.
That expression of the acidic PR1 and PR2 proteins is materialised by the intensity of the spots, which appear on the tracks 10, 11, 12, 13, and which are the result of the determination by immunodetection.

[5] = tested on: cellular suspension of Nicotiana tabacum cv. Bright Yellow; experiment: Alkalinisation test of the extracellular medium on cellular suspension; type: cell-based; conditions: after 10 minutes; 160 μl of 10 g/l composition added to 8 ml suspension, final concentration about 200 mg/l
Protocol: The cellular suspensions here above mentioned are suspensions obtained starting from the vegetal tissue of Nicotiana tabacum cv. Bright Yellow.
One of these experiences is consisting of the so-called alkalinisation test of the extracellular medium and the other of the so-called test of the refractory state.
In the case of the first test, the latter is carried out on a cellular suspension obtained starting from vegetable tissues of the variety Bright Yellow. To three 8 ml samples of that cellular suspension were added respectively 160 μl of three aqueous compositions respectively containing 10 g/l of the fractions H11-C1, I25 (oligofucanes) and H11-S, the final concentration in each of the oligosaccharides being equal to […].

[6] = tested on: scopoletin; experiment: Accumulation of total scopoletin in infiltrated tissues; type: in vivo, Nicotiana tabacum; conditions: variety Bel3, tissues sampled 3 days after infiltration (FIG. 6)
Source text: (§2) The stimulation, after infiltration with the here above defined compositions H11-C and H11-S of the accumulation of salicylic acid and of scopoletin in the varieties NN and Bel3 was then examined.
(§3) The results of these experiences appear on FIGS. 5 and 6, which respectively show the accumulation—expressed in μg respectively of salicylic acid and of scopoletin per gram of infiltrated tissues—of the total salicylic acid (free and conjugated forms) and of the total scopoletin (free and conjugated forms) determined on tissues on the varieties NN and Bel3 infiltrated as indicated here above on the one hand with water (C) as a control and on the other hand with compositions based on the fractions H11-C1 and H11-S containing respectively 200 mg/l of these fractions, the infiltrated tissues being sampled 3 days after the infiltration treatment.

[7] = tested on: tobacco plants of the varieties NN and Bel3; experiment: Symptoms of leaf tissues after infiltration into the mesophyl (depigmentation/chlorosis, fluorescence under UV light); type: in vivo, Nicotiana tabacum
Protocol: The treatment has been applied on the one hand to the whole plants and on the other hand to cellular suspensions, the varieties of the plants used being: • the variety Nicotiana tabacum cv. Samsun NN designated by NN • the variety Nicotiana tabacum cv. Bel3 designated by Bel3
First, the plants of the varieties NN and Bel 3 as such were treated using aqueous compositions comprising respectively the fractions H11-C1 and H11-S at the concentration of 200 mg/l, which is, as indicated hereabove, the optimum dosis for the elicitor activity of unsulfated glucans.
The treatment consists in the infiltration of the above said aqueous compositions based on the fractions H11-C1 and H11-S into the mesophyl of the leaves of the treated plants.
The infiltration is carried out by piercing tobacco leaves using a needle and by applying then perpendicularly with respect to the plane of the leave a syringe containing the solution to be injected. Immediately after the injection, the infiltration zone, visible by illumination of the leave from its lower face, is delimitated using a felt type pen. The infiltrated zone is designated by ZI.
as §1

[8] = tested on: salicylic acid; experiment: Accumulation of total salicylic acid in infiltrated tissues; type: in vivo, Nicotiana tabacum; conditions: variety Bel3, tissues sampled 3 days after infiltration (FIG. 5)
Source text: as §2, §3

In the case of laminarin sulfate [H11-S], the “concentration above which no better result is provided” value [1] is reported as “higher than 500 mg/l”, the “stimulation of the OMT activity” value ([2]; varieties NN and Bel3, compared among C, H11-C1, H11-C2, H11-C3, H11-S, H16 (FIG. 4)) is reported as “clearly better” and the “stimulation of the OMT activity” value ([2]; variety Bel3, H11-S versus H11-C1 (FIG. 2)) is reported as “clearly more intense”. For the same substance, the “stimulation of the OMT activity” value ([2]; variety NN, H11-S versus H11-C1 (FIG. 2)) was “similar”, the “increase of OMT activity as a function of the concentration” value ([2]; 0.5, 5, 50, 200 and 500 mg/l, varieties NN and Bel3 (FIGS. 8 and 9)) was “much faster” and the “OMT activity relative to that obtained with H11-C2” value ([2]; variety Bel3) was “about ten”. For the same substance, the “OMT activity relative to that obtained with H11-C2” value ([2]; variety NN) was “about four”, the “factor by which the concentration can be lower than that of H11-C1, H11-C2 and H11-C3 for a comparable OMT result” value ([2]; conclusion from FIG. 4) was “eight” and the “dosis at which the maximum response of OMT activity is reached” value ([2]; varieties NN and Bel3) was 500 mg/L. The “factor by which the concentration can be lower for OMT stimulation equal to H11-C1 at 200 mg/l” value ([2]; variety Bel3, forecast from FIG. 2) was 8 to 9 times, the “induction of signalisation pathways” value [3] was “induce the signalisation pathways of salicic acid and of ethylene” and the “expression of acidic and alkaline isoforms of PR1, PR2, PR3 and PR5 proteins” value ([4]; 200 mg/l, varieties NN and Bel3, H11-S compared with H11-C1 (FIG. 1)) was “more important; also recorded: stronger”. For the same substance, the “expression of the acidic PR1 protein” value ([4]; 200 mg/l, varieties NN and Bel3, tissues sampled 3 days after infiltration (FIG. 3)) was “highest expression”, the “concentration from which acidic PR1 and PR2 proteins are detected” value ([4]; immunodetection, concentration series 0.5 to 1,000 mg/l, varieties NN and Bel3 (FIG. 7)) was 5 to 20 mg/L and the “dosis at which the maximum response of expression of the PR proteins is reached” value ([4]; varieties NN and Bel3) was 500 mg/L. The “alkalinisation of the medium” value [5] was 0.3 pH units, the “ratio of the concentrations (H11-C1 at 200 mg/l versus H11-S) giving the same accumulation of scopoletin” value [6] was no more than 30 and the “fluorescence under U.V. light at the level of infiltrated tissues” value ([7]; 200 mg/l, infiltrated tissues) was “a blue fluorescence under U.V. light is observed”. The “symptoms of chlorosis as a function of concentration” value ([7]; 0.5, 5, 20, 50, 200 and 1,000 mg/l, varieties NN and Bel3) was “the more the symptoms of chlorosis are severe”, the “symptoms of the infiltrated tissues” value ([7]; aqueous composition 200 mg/l infiltrated into leaf mesophyl, varieties NN and Bel3) was “present a depigmentation” and the “dose at which first symptoms of fluorescence under UV light are obtained” value ([7]; concentration series 0.5 to 1,000 mg/l) was 50 mg/L. For the same substance, the “ratio of the concentrations (H11-C1 at 200 mg/l versus H11-S) giving the same accumulation of salicylic acid” value [8] was no more than 30.
